Patent US20250051263A1, “NOVEL IONIZABLE LIPIDS AND LIPID NANOPARTICLES AND METHODS OF USING THE SAME” (Sail Biomedicines, Inc., priority 2021, published 2025)

Columns and labels:
[1] = LNP size and polydispersity, Zetasizer Ultra; assay type: physicochemical; conditions: Example 5 LNP lipid:DOPE:Plant Cholesterol:DMPE-PEG2k 35:16:46.5:2.5, FLUC/EPO 1:1 mRNA, N:P 6:1
Source text: (§1) All other compositions (i.e., compositions of MC3 (a commercially available ionizable lipid having a chemical name of (6Z,9Z,28Z,31Z)-heptatriacont-6,9,28,31-tetraene-19-yl 4-(dimethylamino)butanoate, and compositions of novel ionizable lipids 7669, 7671, 7668, 767, 7650) are composed of ionizable lipid:structural lipid:sterol:PEG-lipid (SDA lipid #:DSPC:cholesterol:14:0 PEG2000 PE) at a molar ratio of […], respectively. Lipids are solubilized in ethanol. Compositions are then handled as above, except the formulations are maintained at ionizable lipid to mRNA N:P ratio of 6:1. The lipid mix and mRNA solution are mixed at a 1:3 ratio by volume, respectively, on a NanoAssemblr Ignite (Precision Nanosystems) at a total flow rate of 9 mL/min. Resulting compositions are then loaded into Slide-A-Lyzer G2 dialysis cassettes (10 k MWCO) and dialyzed in 200 times sample volume of 1×PBS for 4 hrs at room temp with gentle stirring. The PBS is refreshed, and the compositions are further dialyzed for at least 14 hrs at 4° C. with gentle stirring. The dialyzed compositions are then collected and concentrated by centrifugation at 2000×g using Amicon Ultra centrifugation filters (100 k MWCO). Concentrated particles are characterized for size, polydispersity, and particle concentration using Zetasizer Ultra (Malvern Panalytical) and for mRNA encapsulation efficiency using Quant-iT RiboGreen RNA Assay Kit (ThermoFisher Scientific).
(§2) The lipid mix and mRNA solution were mixed at a 1:3 ratio by volume, respectively, on the NanoAssemblr Ignite (Precision Nanosystems) at a total flow rate of 9 mL/min. Resulting formulations were then loaded into Slide-A-Lyzer G2 dialysis cassettes (10 k MWCO) and dialyzed in 200 times sample volume of 1×PBS for 2 hrs at room temperature. The PBS was refreshed, and the formulations were further dialyzed for at least 14 hrs at 4° C. with gentle stirring. The dialyzed formulations were then collected and concentrated by centrifugation at 3000×g using Amicon Ultra centrifugation filters (100 k MWCO). The concentrated formulations were characterized for size, polydispersity, and particle concentration using Zetasizer Ultra (Malvern Panalytical) and for mRNA encapsulation efficiency using Quant-iT RiboGreen RNA Assay Kit (ThermoFisher Scientific).
(§3) For each LNP composition, the lipid mix and mRNA solution were mixed at a 1:3 ratio by volume, respectively, on a NanoAssemblr Ignite (Precision Nanosystems) at a total flow rate of 9 mL/min. The resulting compositions were then loaded into Slide-A-Lyzer G2 dialysis cassettes (10 k MWCO) and dialyzed in 200 times sample volume of 1×PBS for 2 hours at room temperature with gentle stirring. The PBS was refreshed, and the compositions were further dialyzed for at least 14 hours at 4° C. with gentle stirring. The dialyzed compositions were then collected and concentrated by centrifugation at 3000×g using Amicon Ultra centrifugation filters (100 k MWCO). The concentrated particles were characterized for size, polydispersity, and particle concentration using Zetasizer Ultra (Malvern Panalytical) and for mRNA encapsulation efficiency using Quant-iT RiboGreen RNA Assay Kit (ThermoFisher Scientific).

[2] = mRNA encapsulation efficiency, Quant-iT RiboGreen RNA Assay; assay type: physicochemical; conditions: Example 5 LNP lipid:DOPE:Plant Cholesterol:DMPE-PEG2k 35:16:46.5:2.5, FLUC/EPO 1:1 mRNA, N:P 6:1
Source text: as §1, §2, §3

Balb/c mice [3] = experiment: In-vivo bioluminescent imaging after IV injection of Fluc mRNA LNP; conditions: Example 5 LNP (DOPE 35:16:46.5:2.5), IV, 5 μg FLUC + 5 μg EPO
Procedure: (§4) 8-9 week old female Balb/c mice are utilized for bioluminescence-based ionizable lipid screening efforts. Mice are obtained from Jackson Laboratories (JAX Stock: 000651) and allowed to acclimate for one week prior to manipulations. Animals are placed under a heat lamp for a few minutes before introducing them to a restraining chamber. The tail is wiped with alcohol pads (Fisher Scientific) and 100 μL of a lipid nanoparticle composition descrbed above containing 10 ug total mRNA (5 ug Fluc+5 ug EPO) is injected intravenously using a 29 G insulin syringe (Covidien). Any resulting bleeding is stemmed using a sterile gauze pad (Fisher Scientific) and animals are placed back into their home cage. 4-6 hours post-dose, animals are injected with 200 μL of 15 mg/mL D-Luciferin (GoldBio) and placed in an isoflurane induction chamber set to deliver 2.5% isoflurane delivered at an oxygen flow rate of 1-2 liters per min. After 5 minutes of isoflurane exposure, mice are placed in set nose cones inside the IVIS Lumina LT imager (PerkinElmer). LivingImage software is utilized for imaging. Whole body bio-luminescence is captured at auto-exposure after which animals are removed from the IVIS and placed into a CO2 chamber for euthanasia. Cardiac puncture is performed on each animal after placing it in dorsal recumbency, and blood collection is performed using a 25 G insulin syringe (BD). Blood is collected in Lithium-Heparin coated tubes (Fisher Scientific) and immediately placed on ice. Once all blood samples are collected, tubes are spun at 2000 G for 10 minutes using a tabletop centrifuge and plasma is aliquoted into individual Eppendorf tubes (Fisher Scientific) and stored at −80 C for subsequent EPO quantification. EPO levels in plasma are determined using EPO MSD kit (Meso Scale Diagnostics).
(§5) 8-9 week old female Balb/c mice were utilized for bioluminescence-based ionizable lipid screening efforts. Mice were obtained from Jackson Laboratories (JAX Stock: 000651) and allowed to acclimate for one week prior to manipulations. Animals were placed under a heat lamp for a few minutes before introducing them to a restraining chamber. The tail was wiped with alcohol pads (Fisher Scientific) and, for each LNP composition descrbed above, 100 μL of a lipid nanoparticle composition descrbed above containing 10 μg total mRNA (5 μg Fluc+5 μg EPO, 5 μg Fluc+5 μg Cre, or 5 μg EGFP) was injected intravenously using a 29 G insulin syringe (Covidien).
(§6) 4-6 hours post-dose, animals were injected with 200 μL of 15 mg/mL D-Luciferin (GoldBio), and placed in set nose cones inside the IVIS Lumina LT imager (PerkinElmer). LivingImage software was utilized for imaging. Whole body bio-luminescence was captured at auto-exposure after which animals are removed from the IVIS and placed into a CO2 chamber for euthanasia. Cardiac puncture was performed on each animal after placing it in dorsal recumbency, and blood collection was performed using a 25 G insulin syringe (BD). Once all blood samples were collected, tubes are spun at 2000 G for 10 minutes using a tabletop centrifuge and plasma was aliquoted into individual Eppendorf tubes (Fisher Scientific) and stored at −80° C. for subsequent EPO quantification. EPO levels in plasma were determined using EPO MSD kit (Meso Scale Diagnostics).

Balb/c mice [4] = experiment: EPO levels in plasma by EPO MSD kit after IV injection of EPO mRNA LNP; assay type: in vivo; conditions: Example 5 LNP (DOPE 35:16:46.5:2.5), 5 μg FLUC + 5 μg EPO
Procedure: as §4, §5, §6

CCCCCCCCC(CCCCCCCC)OC(=O)CCCCCCCN(CCCCCCCOC(=O)C(CCCCCCCC)CCCCCCCC)CCNC(=O)CCC(=O)NCCN(CCCCCCCOC(=O)C(CCCCCCCC)CCCCCCCC)CCCCCCCC(=O)OC(CCCCCCCC)CCCCCCCC [Compound 2323, 7-[2-[[4-[2-[7-(2-octyldecanoyloxy)heptyl-[8-(1-octylnonoxy)-8-oxo-octyl]amino]ethylamino]-4-oxo-butanoyl]amino]ethyl-[8-(1-octylnonoxy)-8-oxo-octyl]amino]heptyl 2-octyldecanoate]
PDI [1]: 0.14
Size (nm) [1]: 91.0 nm
% EE [2]: 90.7%
Bioluminescence (IV) Liver (Balb/c mice [3]; 4-6 hours post-dose, liver): 3.2E+07
Bioluminescence (IV) Lung (Balb/c mice [3]; 4-6 hours post-dose, lung): 7.7E+03
Bioluminescence (IV) Spleen (Balb/c mice [3]; 4-6 hours post-dose, spleen): 8.7E+05
Bioluminescence (IV) Whole Body (Balb/c mice [3]; 4-6 hours post-dose, whole body): 2.1E+08
Spleen: Liver Ratio (Balb/c mice [3]; ratio of bioluminescence): 0.027
hEPO (Balb/c mice [4]): 3.1E+06
